These results are taken from patent US7662832B2, “Pyrrolo[2,3-c]pyridine derivatives and processes for the preparation thereof” (priority 2004, dated 2010).

pIC50: −log10 of the molar value. Structures can show the parent of a compound that is named as a salt.

In this assay the target is Proton Pump (H^+/K^+-ATPase) (Sus scrofa, UniProt P19156). The experiment in a line: Inhibitory effects on proton pump (H^+/K^+-ATPase) activity. In kind it is biochemical. The settings on record: hog gastric vesicles; K^+ stimulated H^+/K^+-ATPase activity; 30 minutes at 37° C.
Chain of Proton Pump (H^+/K^+-ATPase) (P19156 2-1034 limits assumed): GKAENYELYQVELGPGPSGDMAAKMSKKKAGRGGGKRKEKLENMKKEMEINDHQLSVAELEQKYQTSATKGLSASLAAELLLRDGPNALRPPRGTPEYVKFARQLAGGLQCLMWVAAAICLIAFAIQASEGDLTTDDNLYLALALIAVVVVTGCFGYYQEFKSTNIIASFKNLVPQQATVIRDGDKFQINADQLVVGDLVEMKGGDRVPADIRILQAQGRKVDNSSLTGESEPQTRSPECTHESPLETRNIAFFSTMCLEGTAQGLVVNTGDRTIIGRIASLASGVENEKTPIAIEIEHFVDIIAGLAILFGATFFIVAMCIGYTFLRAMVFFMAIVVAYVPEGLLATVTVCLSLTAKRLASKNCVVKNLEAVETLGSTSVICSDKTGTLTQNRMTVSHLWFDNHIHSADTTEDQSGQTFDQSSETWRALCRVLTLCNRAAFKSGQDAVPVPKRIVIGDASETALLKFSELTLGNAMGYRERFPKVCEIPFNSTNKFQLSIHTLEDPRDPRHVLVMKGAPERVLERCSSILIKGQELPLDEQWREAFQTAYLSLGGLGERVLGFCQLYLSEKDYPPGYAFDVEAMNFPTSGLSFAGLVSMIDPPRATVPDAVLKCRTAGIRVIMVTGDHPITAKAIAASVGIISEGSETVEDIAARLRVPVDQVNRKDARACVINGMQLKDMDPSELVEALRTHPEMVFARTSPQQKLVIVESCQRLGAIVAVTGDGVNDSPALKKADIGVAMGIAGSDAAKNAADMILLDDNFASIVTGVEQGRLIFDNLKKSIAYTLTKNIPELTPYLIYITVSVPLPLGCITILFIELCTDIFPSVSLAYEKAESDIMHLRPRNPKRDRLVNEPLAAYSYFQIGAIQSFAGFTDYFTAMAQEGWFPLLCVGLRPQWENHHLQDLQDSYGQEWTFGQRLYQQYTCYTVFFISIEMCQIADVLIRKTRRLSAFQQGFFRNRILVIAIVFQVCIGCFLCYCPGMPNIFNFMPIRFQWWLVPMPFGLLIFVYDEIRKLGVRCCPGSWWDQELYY
Chain of Proton Pump (H^+/K^+-ATPase) (P18434 whole entry partner): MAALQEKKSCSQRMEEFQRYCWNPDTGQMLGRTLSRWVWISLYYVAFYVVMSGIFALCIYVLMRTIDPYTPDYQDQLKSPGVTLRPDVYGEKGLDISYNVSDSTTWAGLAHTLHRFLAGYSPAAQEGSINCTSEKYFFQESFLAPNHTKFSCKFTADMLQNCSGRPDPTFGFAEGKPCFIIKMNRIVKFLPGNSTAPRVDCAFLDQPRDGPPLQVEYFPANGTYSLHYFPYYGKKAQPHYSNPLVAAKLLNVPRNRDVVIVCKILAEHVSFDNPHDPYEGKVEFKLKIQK
In turn, `C#CCn1c(C)c(C)c2ccnc(-c3ccc(C)cc3)c21` [Example 280, 2,3-dimethyl-1-(prop-2-ynyl)-7-(p-tolyl)-1H-pyrrolo[2,3-c]pyridine hydrochloride] showed a pIC50 of 6.46.

Turning to `Cc1c(C)n(CC2CC2)c2c(N3CCc4ccccc4C3)nc(C(=O)N3CCN(C)CC3)cc12` [Example 817, [1-cyclopropylmethyl-7-(3,4-dihydro-1H-isoquinolin-2-yl)-2,3-dimethyl-1H-pyrrolo[2,3-c]pyridin-5-yl]-(4-methylpiperazin-1-yl)-methanone hydrochloride], the pIC50 was 7.62.

In the case of `Cc1c(C)n(Cc2cccc(F)c2)c2c(N(C)Cc3ccc(F)cc3)nccc12` [Example 159, 1-(3-fluorobenzyl)-7-[N-(4-fluorobenzyl)-N-methyl]amino-2,3-dimethyl-1H-pyrrolo[2,3-c]pyridine hydrochloride], the pIC50 was 7.05.

For the compound `Cc1ccccc1CNc1nccc2c(C)c(C)n(Cc3ccccc3)c12` [Example 216, 1-benzyl-2,3-dimethyl-7-(2-methylbenzylamino)-1H-pyrrolo[2,3-c]pyridine hydrochloride], the pIC50 is 6.59.

The compound `Cc1c(C)n(Cc2ccccc2)c2c(N3CCc4ccccc4C3)nc(C(=O)N3CCNCC3)cc12` [Example 812, [1-benzyl-7-(3,4-dihydro-1H-isoquinolin-2-yl)-2,3-dimethyl-1H-pyrrolo[2,3-c]pyridin-5-yl]-(piperazin-1-yl)-methanone hydrochloride] showed a pIC50 of 7.68.

As for `CSc1ccc(-c2nccc3c(C)c(C)n(Cc4ccccc4F)c23)cc1` [Example 275, 2,3-dimethyl-1-(2-fluorobenzyl)-7-(4-methylsulfanylphenyl)-1H-pyrrolo[2,3-c]pyridine hydrochloride], the pIC50 was 6.44.

For `Cc1ccc(Cn2c(C)c(C)c3ccnc(-c4ccc(C)cc4)c32)cc1` [Example 279, 2,3-dimethyl-1-(4-methylbenzyl)-7-(p-tolyl)-1H-pyrrolo[2,3-c]pyridine hydrochloride], the pIC50 is 6.64.

In turn, `C=CCn1c(C)c(C)c2ccnc(N3CCc4ccccc4C3)c21` [Example 486, 1-allyl-7-(1,2,3,4-tetrahydroisoquinolin-2-yl)-2,3-dimethyl-1H-pyrrolo[2,3-c]pyridine tartrate] gave a pIC50 of 8.10.

As to `C=CCn1c(C)c(C)c2cc(C(=O)N3CCOCC3)nc(N3CCc4ccccc4C3)c21` [Example 777, [1-allyl-7-(3,4-dihydro-1H-isoquinolin-2-yl)-2,3-dimethyl-1H-pyrrolo[2,3-c]pyridin-5-yl]-(morpholin-4-yl)-methanone hydrochloride], the pIC50 is 8.80.

Compound `Cc1cccc(Cn2c(C)c(C)c3cc(C(=O)N4CCCCC4)nc(N4CCc5ccccc5C4)c32)c1` [Example 798, [7-(3,4-dihydro-1H-isoquinolin-2-yl)-2,3-dimethyl-1-(3-methylbenzyl)-1H-pyrrolo[2,3-c]pyridin-5-yl]-(piperidin-1-yl)-methanone hydrochloride] showed a pIC50 of 6.66.

Compound `C=CCn1c(C)c(C)c2cc(C(=O)N3CCCCC3)nc(N3CCc4ccccc4C3)c21` [Example 786, [1-allyl-7-(3,4-dihydro-1H-isoquinolin-2-yl)-2,3-dimethyl-1H-pyrrolo[2,3-c]pyridin-5-yl]-(piperidin-1-yl)-methanone hydrochloride] showed a pIC50 of 7.82.

On to `CCn1c(C)c(C)c2ccnc(N3CCc4ccccc4C3C)c21` (centres unmarked) [Example 554, 2-(1-ethyl-2,3-dimethyl-1H-pyrrolo[2,3-c]pyridin-7-yl)-1-methyl-1,2,3,4-tetrahydroisoquinoline hydrochloride], for which the pIC50 was 7.23.

On to `C=CCn1c(C)c(C)c2ccnc(N3CCc4ccccc4C3)c21` [Example 490, 1-allyl-7-(1,2,3,4-tetrahydroisoquinolin-2-yl)-2,3-dimethyl-1H-pyrrolo[2,3-c]pyridine nitrate], for which the pIC50 is 8.52.

Compound `COc1cccc(Cn2c(C)c(C)c3ccnc(N(C)Cc4ccc(F)cc4)c32)c1` [Example 151, 7-[N-(4-fluorobenzyl)-N-methyl]amino-1-(3-methoxybenzyl)-2,3-dimethyl-1H-pyrrolo[2,3-c]pyridine hydrochloride] had a pIC50 of 6.47.

As to `Cc1c(C)n(Cc2cccc(F)c2)c2c(N3CCc4ccccc4C3)nc(CNC3CCC3)cc12` [Example 870, N-[7-(3,4-dihydro-1H-isoquinolin-2-yl)-1-(3-fluorobenzyl)-2,3-dimethyl-1H-pyrrolo[2,3-c]pyridin-5-ylmethyl]-cyclobutylamine hydrochloride], the pIC50 is 7.37.

In the case of `C=Cc1ccc(-c2nccc3c(C)c(C)n(Cc4ccccc4)c23)cc1` [Example 246, 1-benzyl-2,3-dimethyl-7-(4-vinylphenyl)-1H-pyrrolo[2,3-c]pyridine hydrochloride], the pIC50 was 6.96.

For the compound `Cc1c(C)n(CC2CC2)c2c(COc3ccc(F)cc3F)nccc12` [Example 35, 1-cyclopropylmethyl-7-(2,4-difluorophenoxymethyl)-2,3-dimethyl-1H-pyrrolo[2,3-c]pyridine hydrochloride], the pIC50 was 6.07.

Turning to `Cc1c(C)n(CC(C)C)c2c(NCc3ccc(Cl)cc3)nccc12` [Example 209, 7-(4-chlorobenzylamino)-1-isobutyl-2,3-dimethyl-1H-pyrrolo[2,3-c]pyridine hydrochloride], the pIC50 is 7.18.

The compound `CCCn1c(C)c(C)c2ccnc(NCc3ccc(C)cc3)c21` [Example 205, 2,3-dimethyl-7-(4-methylbenzylamino)-1-propyl-1H-pyrrolo[2,3-c]pyridine hydrochloride] had a pIC50 of 6.48.

For “[7-(3,4-dihydro-1H-isoquinolin-2-yl)-1-(3-fluorobenzyl)-2,3-dimethyl-1H-pyrrolo[2,3-c]pyridin-5-yl]-methylamine hydrochloride [Example 888]”, the pIC50 is 7.70.

Consider `Cc1c(C)n(Cc2cccc(F)c2)c2c(N3CCc4ccccc4C3)nc(CN3CCN(C)CC3)cc12` [Example 873, 2-[1-(3-fluorobenzyl)-2,3-dimethyl-5-(4-methylpiperazin-1-ylmethyl)-1H-pyrrolo[2,3-c]pyridin-7-yl]-1,2,3,4-tetrahydroisoquinoline hydrochloride], for which the pIC50 was 7.59.

`C=CCn1c(C)c(C)c2ccnc(-c3ccc(Cl)cc3)c21` [Example 300, 1-allyl-7-(4-chlorophenyl)-2,3-dimethyl-1H-pyrrolo[2,3-c]pyridine hydrochloride] showed a pIC50 of 6.76.

`CCCn1c(C)c(C)c2ccnc(NCc3ccccc3C)c21` [Example 230, 2,3-dimethyl-7-(2-methylbenzylamino)-1-propyl-1H-pyrrolo[2,3-c]pyridine hydrochloride] had a pIC50 of 7.04.

In the case of `Cc1c(C)n(CC2CC2)c2c(NCc3ccc(Cl)cc3)nccc12` [Example 227, 7-(4-chlorobenzylamino)-1-cyclopropylmethyl-2,3-dimethyl-1H-pyrrolo[2,3-c]pyridine hydrochloride], the pIC50 is 7.14.

Turning to `CCCn1c(C)c(C)c2ccnc(NCc3ccccc3Cl)c21` [Example 231, 7-(2-chlorobenzylamino)-2,3-dimethyl-1-propyl-1H-pyrrolo[2,3-c]pyridine hydrochloride], the pIC50 was 6.86.

Take `CCc1[nH]c2c(N3CCc4ccccc4C3)nccc2c1C` [Example 591, 2-ethyl-3-methyl-7-(1,2,3,4-tetrahydroisoquinolin-2-yl)-1H-pyrrolo[2,3-c]pyridine]: the pIC50 was 6.30.

The compound `Cc1ccc(CNCc2cc3c(C)c(C)n(Cc4cccc(F)c4)c3c(N3CCc4ccccc4C3)n2)cc1` [Example 867, N-[7-(3,4-dihydro-1H-isoquinolin-2-yl)-1-(3-fluorobenzyl)-2,3-dimethyl-1H-pyrrolo[2,3-c]pyridin-5-ylmethyl]-4-methylbenzylamine hydrochloride] showed a pIC50 of 6.39.

As for `CCCn1c(C)c(C)c2ccnc(-c3ccc4ccccc4c3)c21` [Example 407, 2,3-dimethyl-7-(naphthalen-2-yl)-1-propyl-1H-pyrrolo[2,3-c]pyridine hydrochloride], the pIC50 is 6.95.

With `Cc1c(C)n(Cc2ccccc2)c2c(COc3ccc(Cl)cc3)nccc12` [Example 43, 1-benzyl-7-(4-chlorophenoxymethyl)-2,3-dimethyl-1H-pyrrolo[2,3-c]pyridine hydrochloride], the pIC50 was 6.89.

In turn, `CCNC(=O)c1cc2c(C)c(C)n(Cc3ccccc3)c2c(N2CCc3ccccc3C2)n1` [Example 765, 1-benzyl-7-(3,4-dihydro-1H-isoquinolin-2-yl)-2,3-dimethyl-N-ethyl-1H-pyrrolo[2,3-c]pyridin-5-carboxamide] showed a pIC50 of 6.45.

`CCN1CCN(C(=O)c2cc3c(C)c(C)n(Cc4ccccc4)c3c(NCc3ccc(F)cc3)n2)CC1` [Example 907, [1-benzyl-7-(4-fluorobenzylamino)-2,3-dimethyl-1H-pyrrolo[2,3-c]pyridin-5-yl]-(4-ethylpiperazin-1-yl)-methanone hydrochloride] had a pIC50 of 7.49.

`CCn1nnnc1-c1cc2c(C)c(C)n(Cc3cccc(Cl)c3)c2c(N2CCc3ccccc3C2)n1` [Example 854, 2-[1-(3-chlorobenzyl)-2,3-dimethyl-5-(1-ethyl-1H-tetrazol-5-yl)-1H-pyrrolo[2,3-c]pyridin-7-yl]-1,2,3,4-tetrahydroisoquinoline] had a pIC50 of 6.55.

Regarding `Cc1c(C)n(Cc2ccc(F)cc2)c2c(N3CCc4ccccc4C3)nc(C(=O)N3CCCCC3)cc12` [Example 797, [7-(3,4-dihydro-1H-isoquinolin-2-yl)-1-(4-fluorobenzyl)-2,3-dimethyl-1H-pyrrolo[2,3-c]pyridin-5-yl]-(piperidin-1-yl)-methanone hydrochloride], the pIC50 was 6.54.

The compound `CCn1c(C)c(C)c2ccnc(NCc3ccc(F)cc3)c21` [Example 223, 1-ethyl-7-(4-fluorobenzylamino)-2,3-dimethyl-1H-pyrrolo[2,3-c]pyridine hydrochloride] had a pIC50 of 6.36.

The compound `CCn1c(C)c(C)c2cc(C(=O)N3CCCC3)nc(N3CCc4ccccc4C3)c21` [Example 803, [7-(3,4-dihydro-1H-isoquinolin-2-yl)-1-ethyl-2,3-dimethyl-1H-pyrrolo[2,3-c]pyridin-5-yl]-(pyrrolidin-1-yl)-methanone hydrochloride] gave a pIC50 of 7.46.
